Values of other authors in patent US20020142346A1, “Binding compounds and methods for identifying binding compounds” (priority 2000, published 2002).

What was measured:
SH2 (src) = target: T1, SH2 (src) (Homo sapiens, UniProt P12931); conditions: binding domain SH2 (src); preferred peptide
T1 construct: SH2 (src)

Src = conditions: binding domain Src; preferred peptide

Kd (SH2 (src)) [nM] | Substance | Kd (Src) [nM]
100 | PYEEIY | 
 | EPQpYEEIPIYLK | 80
